Details of data set [1]: method as in PMID 15593345. The settings on record: in vitro; cited from earlier work.
Data set [2] relates to C. albicans cell-free extract. The format is in vitro ADME, Candida albicans. Conditions: conjugate 150 µM, 30 °C, 0, 30, 120 min. As for the experimental part:
(§1) Conjugates 24a–d, containing the TML system, were tested for susceptibility to enzymatic cleavage in the model system with pig liver esterase and in cell-free extract prepared from C. albicans cells. Conjugate 35 containing the o-dithiobenzylcarbamoyl linker was tested in the model system with glutathione and in C. albicans cell-free extract.
C. albicans cells were harvested from the culture in YPD medium in the logarithmic phase of growth and washed with PBS, pH 7.4. Then, cells were suspended in a minimal amount of PBS to an optical density OD660 ≈ 1.5. A sample of 1.5 mL of the cell suspension was put into the Lysing Matrix D, 2 mL tubes containing 1.4 mm ceramic spheres (MP Biomedicals). The tubes were vortexed 5 times for 2 min intervals, with 2 min breaks for cooling in the ice/water bath. Finally, the mixtures were centrifuged (10,000× g, 4 °C, 20 min), and the supernatant was pushed through the syringe filter, 0.22 μm pore size, to remove unbroken cells. The thus-obtained cell-free extract was kept at 4 °C and used no later than 5 h after preparation.
(§2) Analysis of cleavage of the conjugates was performed in two experimental systems: (A) model system, in the presence of pig liver esterase or glutathione, reduced; (B) in C. albicans cell-free extract.
A given conjugate was dissolved in 4 mL of C. albicans cell-free extract to the initial concentration of 150 µM. Mixtures were incubated at 30 °C. Samples of 1 mL were collected at zero time, after 30 min, and after 120 min. The collected samples were immediately de-proteinized by centrifugation (4 °C, 5000× g, 10 min) in Amicon® Ultra-4 Centrifugal Filter Units, 3 kDa cutoff limit. Samples of 50 μL were collected from the filtrates and subjected to HPLC-MS analysis.
(§3) The HPLC-MS system consisted of a liquid chromatograph, a degasser, a binary pomp, an auto-sampler, and a column oven, which was combined with an MS detector with an electrospray source (AJS ESI) and quadrupole analyzer (1260 Infinity II and 6470 Triple Quad LC/MS, Agilent Technologies, Waldbronn, Germany). The ChemStation software was used to control the LC-MS system and for data processing.
Chromatographic separations were performed on an Eclipse XDB-C18 column (150 mm × 4.6 mm, 5 μm). For the separation, a gradient of mobile phase A (H2O + 0.01% HCOOH) and mobile phase B (100% methanol) was used. The gradient profile was set as follows: 0 min—95% effluent A, 8 min—70% effluent A, 11 min—50% effluent A, 12 min—95% effluent A, 17 min—95% effluent A. The flow rate was 1 mL min^−1, the column temperature was 25 °C, and the injection volume was 20 μL.
The electrospray source operated in a negative mode. The data were collected in a MS scanning mode (MS2 SCAN) with the range 150–700 (m/z).

Data set [3] is described as follows: HPLC-MS analysis of conjugate cleavage, model system with glutathione. The format is in vitro ADME. The settings on record: reduced, conjugate 150 µM, 30 °C, 0, 30, 120 min. As for the experimental part:
as §1, §2
Mixtures containing a given conjugate at the initial concentration of 150 µM and pig liver esterase, 5 mg mL^−1 or 10 mM glutathione, reduced, in a total volume of 200 μL were incubated at 30 °C. Samples of 50 μL were collected at zero time, after 30 min, and after 120 min and subjected to HPLC-MS analysis.
as §3
Chromatographic separations were performed on an Eclipse XDB-C18 column (150 mm × 4.6 mm, 5 μm). […]

Data set [4] relates to Candida spp. Nature of the data set: Antifungal in vitro activity, summary statements over the Candida strains tested. Format: cell-based. As for the experimental part:
The antifungal in vitro activity of conjugates 24a–d and 35 was determined by the serial two-fold dilution method, using the 96-well microtiter plates, in two growth media, RPMI-1640 and YNB-AS, against seven yeast species from the Candida genus. The MIC50 and MIC90 values, i.e., concentrations at which cell growth was inhibited in 50% and 90%, respectively, were measured and compared to those of the intact cispentacin. The concentration values presented in Table 1 and Table 2 are expressed in mM units to allow the comparison of the compounds’ effectiveness at the molecular level. For data expressed in μg mL^−1 units, such comparison is not possible, since the molecular masses of conjugates (≈1755–2114 D range) are 14–16-fold higher than that of cispentacin (128.3 D).
Susceptibility testing was performed in two growth media: (a) RPMI-1640 w/o sodium bicarbonate, with L-glutamine + 2% glucose + 3.45% MOPS, pH adjusted to 7.0; (b) YNB-AS—Yeast Nitrogen Base w/o amino acids (contains ammonium sulfate 5 g L^−1) + 2% glucose. The in vitro growth inhibitory activity of antifungals was quantified by determination of MIC50 and MIC90 values by the serial two-fold dilution method, using the 96-well microtiter plates. Serial dilutions of cispentacin and its conjugates were prepared in the 4–0.015 mM range.
Conditions of the RPMI-1640-based assay were the same as outlined in the CLSI recommendations except for the end-point readout that was done by spectrophotometric determination of cell density at 660 nm. Turbidity in individual wells was measured with a microplate reader (Victor^3; Perkin Elmer). The 96-well microtiter plates were also used for the determination of in vitro growth inhibitory activity in YNB-AS medium. Individual wells were inoculated with 5 × 10^3 Candida cells mL^−1 from the overnight culture in YPD medium. The plates were incubated at 37 °C for 24 h, and then, turbidity was measured with a microplate reader at 660 nm, as described above for the RPMI-1640-based assay.
Values of MIC50 and MIC90 were read from the graphs of A660 vs. drug concentration and corresponded to the interpolated values of drug concentration at which A660 was 50% or 10% of that measured for the drug-free control.

Entries after “also recorded” stand apart in the source; their conditions may differ.

Regarding `C=C1C[C@H](N)[C@H](C(=O)O)C1` [BAY 10-8888], in data set [1], the “metabolism by liver microsomes” value is given as “not metabolized”.
As to `C[C@H](CCC(=O)NCCCCN(CCCNC(=O)CC[C@@H](C)[C@H]1CC[C@H]2[C@@H]3[C@H](OS(=O)(=O)O)C[C@@H]4C[C@H](OS(=O)(=O)O)CC[C@]4(C)[C@H]3C[C@H](OS(=O)(=O)O)[C@]12C)C(=O)CCSSc1ccccc1COC(=O)N[C@H]1CCC[C@H]1C(=O)O)[C@H]1CC[C@H]2[C@@H]3[C@H](OS(=O)(=O)O)C[C@@H]4C[C@H](OS(=O)(=O)O)CC[C@]4(C)[C@H]3C[C@H](OS(=O)(=O)O)[C@]12C` [compound 35], the “cleavage / release of cispentacin or its derivative (HPLC-MS)” value in data set [2] is given as “Neither cispentacin nor the m/z 145.1/145.2 compound was found”. The “cleavage / release of cispentacin (HPLC-MS)” value in data set [3] was “found in the chromatogram of post-reaction mixture; also recorded: cleavage was observed”. For the same molecule, the antifungal activity result is “devoid of antifungal activity” in data set [4] (RPMI-1640 medium); “inactive in both media” in data set [4] (both growth media (RPMI-1640 and YNB-AS)).

The values are drawn from publication PMC8465315, “Molecular Umbrella as a Nanocarrier for Antifungals” (Molecules, 2021).
